Laboratory results taken from patent publication US11149017B2, “Solid state forms of apalutamide” (WATSON LABORATORIES INC., priority 2016, dated 2021).

What was measured:
[1] = Bulk density and tapped (tap) density of powder; assay type: physicochemical; conditions: as compared to form A of Apalutamide
Text: Bulk density as used in the present application is meant the ratio between mass (weight) and bulk volume for the powder blend. Tapped (tap) density is the maximum packing density of a powder (or blend of powders) achieved under the influence of well defined, externally applied forces. The minimum packed volume thus achieved depends on a number of factors including particle size distribution, true density, particle shape and cohesiveness due to surface forces including moisture. Therefore, the tap density of a material can be used to predict both its flow properties and its compressibility. These two parameters are important in the overall tableting process—which requires that loose powders be compacted into a durable solid form with the correct mechanical strength, porosity and dissolution characteristics—and in capsule filling performance.

[2] = Solubility Study (aqueous buffers, dissolution apparatus, LC analysis); assay type: physicochemical; conditions: compared to other crystalline forms of Apalutamide, e.g. crystalline form B
Experimental: Solubility of Apalutamide was checked using Dissolution apparatus (Lab India D8000) at 37 deg.
Buffers pH. 1.2, 4.5 and 6.8 were prepared as per the USP 36 Solutions/Buffer Solutions 1209.
About 500 mg of Apalutamide were added to the 100 mL buffer (pH 1.2, 4.5 and 6.8) in individual flasks to obtain saturated suspension and the suspension was stirred with 250 rpm for 24 hours. Suspension was observed though out stirring period. Samples were drawn at different intervals on completion of 15 mins, 1 hrs, 4 hrs and 24 hrs from each flask and filtered through 0.45μ PTFE filter; each solution was analyzed for Apalutamide content by liquid chromatography.

| Compound | bulk density [1] | tap density [1] | aqueous solubility [2] |
| --- | --- | --- | --- |
| CNC(=O)c1ccc(N2C(=S)N(c3cnc(C#N)c(C(F)(F)F)c3)C(=O)C23CCC3)cc1F [form T13, Apalutamide] | higher bulk density | higher tap density | – |
| CNC(=O)c1ccc(N2C(=S)N(c3cnc(C#N)c(C(F)(F)F)c3)C(=O)C23CCC3)cc1F [form T11, Apalutamide] | – | – | higher aqueous solubility |
